According to patent US4457936A, “Use of hydroxyphenyl-thiazole-, -thiazoline- and -thiazolidine-carboxylic acids, for influencing the collagen metabolism” (Hoechst Aktiengesellschaft, priority 1980, dated 1984):
Read-outs that look alike come from different tables or passages of the source.

What was measured:
prolyl hydroxylase = prolyl hydroxylase (Homo sapiens, UniProt P13674); assay: enzyme test, hydroxylation of insufficiently hydroxylated collagen by prolyl hydroxylase (cell-free); type: biochemical
From the text: (§1) The inhibiting effect of the substances in accordance with the invention on collagen biosynthesis can be examined in an enzyme test analogous to the method of B. Peterkofsky and R. DiBlasio [Anal. Biochem. 66, 279-286 (1975)]. In this test, insufficiently hydroxylated collagen is enzymatically hydroxylated in the presence of molecular oxygen, iron-II ions, alpha-ketoglutaric and ascorbic acid.
(§2) As enzymes, prolyl hydroxylase or lysyl hydroxylase can be used and applied in a cell-free medium. The effect of the substances of the invention can be measured furthermore in cell and tissue cultures.
(§3) The inhibiting effect (DI50) is that concentration at which the enzyme reaction is inhibited by 50%.

lysyl hydroxylase = molecular target: T1, lysyl hydroxylase (Homo sapiens, UniProt Q02809); assay: enzyme test, hydroxylation of insufficiently hydroxylated collagen by lysyl hydroxylase (cell-free); type: biochemical
T1 sequence (Q02809 19-727): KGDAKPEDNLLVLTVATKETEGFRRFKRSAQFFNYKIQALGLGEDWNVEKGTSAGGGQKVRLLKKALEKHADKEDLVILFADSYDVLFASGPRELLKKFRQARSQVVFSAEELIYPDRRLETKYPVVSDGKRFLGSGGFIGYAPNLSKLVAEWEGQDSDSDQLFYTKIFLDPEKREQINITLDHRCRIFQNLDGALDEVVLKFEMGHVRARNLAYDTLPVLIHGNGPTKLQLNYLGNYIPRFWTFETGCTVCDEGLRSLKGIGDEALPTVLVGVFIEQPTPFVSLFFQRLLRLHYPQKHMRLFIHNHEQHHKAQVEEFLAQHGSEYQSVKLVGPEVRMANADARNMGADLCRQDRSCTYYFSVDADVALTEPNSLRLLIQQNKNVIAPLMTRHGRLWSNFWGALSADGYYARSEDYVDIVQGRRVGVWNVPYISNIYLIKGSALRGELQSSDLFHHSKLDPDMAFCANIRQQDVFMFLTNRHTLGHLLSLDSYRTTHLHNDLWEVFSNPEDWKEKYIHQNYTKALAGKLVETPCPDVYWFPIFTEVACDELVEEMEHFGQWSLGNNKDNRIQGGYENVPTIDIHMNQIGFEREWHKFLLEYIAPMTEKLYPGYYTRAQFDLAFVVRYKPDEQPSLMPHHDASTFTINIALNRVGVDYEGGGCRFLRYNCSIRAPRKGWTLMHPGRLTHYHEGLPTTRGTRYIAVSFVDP
From the text: as §1, §2, §3

collagen biosynthesis = assay: inhibiting effect in cell culture; type: cell-based; details: read-out: DI50 cell culture
From the text: as §2, §3

[1] = concentration at which the enzyme reaction is inhibited by 50%, first part of Table, read-out: DI50 propyl-hydroxylase
[2] = concentration at which the enzyme reaction is inhibited by 50%, first part of Table, read-out: DI50 lysylhydroxylase
[3] = second part of Table, P, read-out: DI50 P.circle.
[4] = second part of Table, column L (circled), read-out: DI50 L.circle.

Chain of prolyl hydroxylase (P13674 18-534): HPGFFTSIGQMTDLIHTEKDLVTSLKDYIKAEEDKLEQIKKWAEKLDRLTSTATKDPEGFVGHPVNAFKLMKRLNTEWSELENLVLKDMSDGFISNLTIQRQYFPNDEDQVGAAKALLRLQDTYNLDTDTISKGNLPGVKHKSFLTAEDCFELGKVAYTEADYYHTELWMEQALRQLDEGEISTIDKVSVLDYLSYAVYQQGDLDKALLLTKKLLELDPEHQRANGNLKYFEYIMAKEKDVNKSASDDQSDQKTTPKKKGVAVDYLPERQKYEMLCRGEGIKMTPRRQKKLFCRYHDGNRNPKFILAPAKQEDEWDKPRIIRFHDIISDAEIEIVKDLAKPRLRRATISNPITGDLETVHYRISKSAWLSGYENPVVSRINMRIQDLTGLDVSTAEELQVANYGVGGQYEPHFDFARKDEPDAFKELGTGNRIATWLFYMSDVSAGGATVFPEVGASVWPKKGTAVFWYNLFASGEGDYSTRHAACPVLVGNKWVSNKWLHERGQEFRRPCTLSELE
Chain of prolyl hydroxylase (P07237 18-508 partner): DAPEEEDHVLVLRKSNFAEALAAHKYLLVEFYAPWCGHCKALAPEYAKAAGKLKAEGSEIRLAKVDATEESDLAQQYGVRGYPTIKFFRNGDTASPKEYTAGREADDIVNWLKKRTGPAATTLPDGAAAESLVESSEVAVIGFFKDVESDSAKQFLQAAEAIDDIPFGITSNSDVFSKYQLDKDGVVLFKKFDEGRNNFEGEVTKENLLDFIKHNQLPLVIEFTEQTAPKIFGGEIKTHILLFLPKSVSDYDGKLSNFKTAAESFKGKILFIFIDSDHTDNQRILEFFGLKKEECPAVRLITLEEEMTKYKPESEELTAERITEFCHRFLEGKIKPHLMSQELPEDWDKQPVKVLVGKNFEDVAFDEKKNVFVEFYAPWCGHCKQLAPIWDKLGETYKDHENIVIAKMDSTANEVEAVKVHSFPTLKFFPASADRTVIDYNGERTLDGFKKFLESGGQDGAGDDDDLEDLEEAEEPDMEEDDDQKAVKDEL

| Compound | IC50 (prolyl hydroxylase; [1]) | IC50 (lysyl hydroxylase; [2]) | IC50 (collagen biosynthesis) | IC50 (prolyl hydroxylase; [3]) | IC50 (lysyl hydroxylase; [4]) |
| --- | --- | --- | --- | --- | --- |
| O=C(O)C1CSC(c2ccccc2O)=N1 (centres unmarked) | 20 µM | 28 µM | – | – | – |
| O=C(O)C1CSC(c2ccc(O)cc2O)=N1 (centres unmarked) | 26 µM | 16 µM | – | – | – |
| O=C(O)[C@@H]1CSC(c2ccccc2O)N1 (some centres unmarked) | 28 µM | 28 µM | – | – | – |
| O=C(O)[C@@H]1CSC(c2cc([N+](=O)[O-])ccc2O)N1 (some centres unmarked) | 50 to 100 µM | 50 to 100 µM | – | – | – |
| O=C(O)[C@@H]1CSC(c2cc(Br)cc(Br)c2O)N1 (some centres unmarked) | 50 to 100 µM | 10 µM | – | – | – |
| O=C(O)[C@@H]1CSC(c2cc(Cl)cc(Cl)c2O)N1 (some centres unmarked) | 50 to 100 µM | 50 to 100 µM | – | – | – |
| O=C(O)c1nc(-c2ccc(O)cc2O)sc1-c1ccccc1 | – | – | – | 27 µM | 21 µM |

The next lines start with the values.

| IC50 (prolyl hydroxylase; [1]) | IC50 (lysyl hydroxylase; [2]) | IC50 (collagen biosynthesis) | IC50 (prolyl hydroxylase; [3]) | IC50 (lysyl hydroxylase; [4]) | Compound |
| --- | --- | --- | --- | --- | --- |
| 28 µM | 28 µM | 34 µM | – | – | Cc1ccc(O)c(C2=NC(C(=O)O)CS2)c1 (centres unmarked) |
| 16 µM | 12 µM | 17 µM | – | – | O=C(O)C1CSC(c2cc(Cl)ccc2O)=N1 (centres unmarked) |
| 42 µM | 67 µM | – | – | – | Cc1ccc(O)c(-c2nc(C(=O)O)cs2)c1 |
| – | – | – | 26 µM | 34 µM | Cc1ccc(O)c(-c2nc(C(=O)O)c(-c3ccccc3)s2)c1 |
| – | – | – | 67 µM | 144 µM | Cc1ccc(O)c(-c2nc(C(=O)O)c(C(=O)O)s2)c1 |
| – | – | – | 71 µM | 188 µM | O=C(O)c1csc(-c2cc(Cl)ccc2O)n1 |
| – | – | – | 5.6 µM | 29 µM | Nc1ccc(O)c(-c2nc(C(=O)O)cs2)c1 |
| – | – | – | 28.2 µM | 31.6 µM | O=C(O)c1csc(-c2cc(Cl)c3ccccc3c2O)n1 |
